Experimental data taken from US11384055B2 (BIOMARIN PHARMACEUTICAL INC., priority 2017, dated 2022).

target: T1, Human GO (Homo sapiens, UniProt Q9UJM8); experiment: GO enzymatic assay (coupled fluorescence/HRP assay, glycolate substrate); format: biochemical; conditions: Table 2; read-out: Range (range of IC50 values calculated from the enzymatic assays)
T1 construct: purchased Novus Biologicals NBP1-72412
T1 sequence (Q9UJM8 1-370): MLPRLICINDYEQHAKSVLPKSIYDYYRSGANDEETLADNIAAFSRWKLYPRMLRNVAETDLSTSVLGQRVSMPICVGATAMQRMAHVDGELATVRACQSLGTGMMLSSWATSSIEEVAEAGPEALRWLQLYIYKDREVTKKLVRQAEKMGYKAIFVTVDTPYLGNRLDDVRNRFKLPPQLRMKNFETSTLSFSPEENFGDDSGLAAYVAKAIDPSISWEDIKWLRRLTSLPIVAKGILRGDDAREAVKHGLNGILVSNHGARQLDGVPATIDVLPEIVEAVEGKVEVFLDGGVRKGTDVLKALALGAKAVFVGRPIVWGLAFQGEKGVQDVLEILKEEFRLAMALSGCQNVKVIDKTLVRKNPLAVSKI
How it was run: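 Coupled HRP/fluorescence read-out of glycolate oxidation by human GO in 50 mM potassium phosphate buffer (pH 7). Inhibitors added across a concentration range.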

First: CC1(C)CCCc2cc(Oc3nn[nH]c3C(=O)O)ccc21 [Compound 281, 4-((5,5-dimethyl-5,6,7,8-tetrahydronaphthalen-2-yl)oxy)-1H-1,2,3-triazole-5-carboxylic acid]
Second: O=C(O)c1[nH]nnc1Oc1ccc(Cl)c(OCC2CC2)c1 [Compound 292, 4-(4-chloro-3-(cyclopropylmethoxy)phenoxy)-1H-1,2,3-triazole-5-carboxylic acid]
The IC50 of the first is higher: 100 to 1000 nM for the first, under 100 nM for the second.

`O=C(O)c1[nH]nnc1OC1Cc2ccc(OC(F)(F)F)cc2C1` (stereo not drawn) [Compound 282, 4-((5-(trifluoromethoxy)-2,3-dihydro-1H-inden-2-yl)oxy)-1H-1,2,3-triazole-5-carboxylic acid] and `O=C(O)c1[nH]nnc1Oc1ccc(C(F)(F)F)c(OCC2CC2)c1` [Compound 295, 4-(3-(cyclopropylmethoxy)-4-(trifluoromethyl)phenoxy)-1H-1,2,3-triazole-5-carboxylic acid] cannot be ordered by IC50: under 100 nM for the first, under 100 nM for the second.

`O=C(O)c1[nH]nnc1OC1CCC2(CCCCC2)CC1` [Compound 283, 4-(spiro[5.5]undecan-3-yloxy)-1H-1,2,3-triazole-5-carboxylic acid] and `O=C(O)c1[nH]nnc1OC1CCC2(CCCC2)CC1` [Compound 284, 4-(spiro[4.5]decan-8-yloxy)-1H-1,2,3-triazole-5-carboxylic acid] cannot be ordered by IC50: under 100 nM for the first, under 100 nM for the second.

`O=C(O)c1[nH]nnc1OC1CCN(c2cc(Cl)cc(Cl)c2)CC1` [Compound 285, 4-((1-(3,5-dichlorophenyl)piperidin-4-yl)oxy)-1H-1,2,3-triazole-5-carboxylic acid 2,2,2-trifluoroacetate] and `O=C(O)c1[nH]nnc1OC1CCN(c2ccc(Cl)c(Cl)c2)CC1` [Compound 286, 4-((1-(3,4-dichlorophenyl)piperidin-4-yl)oxy)-1H-1,2,3-triazole-5-carboxylic acid 2,2,2-trifluoroacetate] cannot be ordered by IC50: under 100 nM for the first, under 100 nM for the second.

`O=C(O)c1[nH]nnc1OC1CCN(c2ccc(C(F)(F)F)cc2)CC1` [Compound 287, 4-((1-(4-(trifluoromethyl)phenyl)piperidin-4-yl)oxy)-1H-1,2,3-triazole-5-carboxylic acid 2,2,2-trifluoroacetate] and `O=C(O)c1[nH]nnc1O[C@H]1CC[C@@H](c2ccc(C(F)(F)F)cc2)CC1` [Compound 310, 4-(((cis)-4-(4-(trifluoromethyl)phenyl)cyclohexyl)oxy)-1H-1,2,3-triazole-5-carboxylic acid] cannot be ordered by IC50: under 100 nM for the first, under 100 nM for the second.

Compared with `O=C(O)c1[nH]nnc1Oc1cc(OCC2CC2)cc(C(F)(F)F)c1` [Compound 288, 4-(3-(cyclopropylmethoxy)-5-(trifluoromethyl)phenoxy)-1H-1,2,3-triazole-5-carboxylic acid], `O=C(O)c1[nH]nnc1Oc1cc(Cl)cc(OCC2CC2)c1` [Compound 289, 4-(3-chloro-5-(cyclopropylmethoxy)phenoxy)-1H-1,2,3-triazole-5-carboxylic acid 2,2,2-trifluoroacetate] is lower in IC50: 100 to 1000 nM for the first, under 100 nM for the second.

`O=C(O)c1[nH]nnc1Oc1cccc(OCC2CCCC2)c1` [Compound 290, 4-(3-(cyclopentylmethoxy)phenoxy)-1H-1,2,3-triazole-5-carboxylic acid 2,2,2-trifluoroacetate] and `O=C(O)c1[nH]nnc1Oc1ccc(Cl)c(OCC2CCCCC2)c1` [Compound 309, 4-(4-chloro-3-(cyclohexylmethoxy)phenoxy)-1H-1,2,3-triazole-5-carboxylic acid] cannot be ordered by IC50: under 100 nM for the first, under 100 nM for the second.

`O=C(O)c1[nH]nnc1OC1CCN(c2cc(Cl)ccc2Cl)CC1` [Compound 291, 4-((1-(2,5-dichlorophenyl)piperidin-4-yl)oxy)-1H-1,2,3-triazole-5-carboxylic acid 2,2,2-trifluoroacetate] and `O=C(O)c1[nH]nnc1O[C@H]1CC[C@@H](c2ccc(Cl)c(Cl)c2)CC1` [Compound 308-1, 4-(((cis)-4-(3,4-dichlorophenyl)cyclohexyl)oxy)-1H-1,2,3-triazole-5-carboxylic acid] cannot be ordered by IC50: under 100 nM for the first, under 100 nM for the second.

`O=C(O)c1[nH]nnc1Oc1cc(OCC2CC2)ccc1Cl` [Compound 293, 4-(2-chloro-5-(cyclopropylmethoxy)phenoxy)-1H-1,2,3-triazole-5-carboxylic acid] and `O=C(O)c1[nH]nnc1OCC1CCC(c2ccc(OC(F)(F)F)cc2)CC1` (stereo not drawn) [Compound 298, 4-((4-(4-(trifluoromethoxy)phenyl)cyclohexyl)methoxy)-1H-1,2,3-triazole-5-carboxylic acid] cannot be ordered by IC50: under 100 nM for the first, under 100 nM for the second.

First: O=C(O)c1[nH]nnc1Oc1ccc(-c2ccc(N3CCC(F)(F)CC3)cc2)cc1 [Compound 297, 4-((4′-(4,4-difluoropiperidin-1-yl)-[1,1′-biphenyl]-4-yl)oxy)-1H-1,2,3-triazole-5-carboxylic acid 2,2,2-trifluoroacetate]
Second: O=C(O)c1[nH]nnc1Oc1ccc(N2CCC(F)(F)CC2)cc1 [Compound 301, 4-(4-(4,4-difluoropiperidin-1-yl)phenoxy)-1H-1,2,3-triazole-5-carboxylic acid 2,2,2-trifluoroacetate]
The IC50 of the first is lower: under 100 nM for the first, 100 to 1000 nM for the second.

`O=C(O)c1[nH]nnc1COc1ccc(-c2cc(Cl)cc(Cl)c2)cc1` [Compound 299, 4-(((3′,5′-dichloro-[1,1′-biphenyl]-4-yl)oxy)methyl)-1H-1,2,3-triazole-5-carboxylic acid] and `O=C(O)c1[nH]nnc1COc1ccc(-c2ccc(OC(F)(F)F)c(Cl)c2)cc1` [Compound 300, 4-(((3′-chloro-4′-(trifluoromethoxy)-[1,1′-biphenyl]-4-yl)oxy)methyl)-1H-1,2,3-triazole-5-carboxylic acid] cannot be ordered by IC50: under 100 nM for the first, under 100 nM for the second.

First: O=C(OCOC(=O)C1CCCCC1)c1[nH]nnc1O[C@H]1CC[C@H](c2ccc(OC(F)(F)F)cc2)CC1 [Compound 303, ((cyclohexanecarbonyl)oxy)methyl 4-(((trans)-4-(4-(trifluoromethoxy)phenyl)cyclohexyl)oxy)-1H-1,2,3-triazole-5-carboxylate]
Second: CC(C)C(=O)OCOC(=O)c1[nH]nnc1O[C@H]1CC[C@H](c2ccc(OC(F)(F)F)cc2)CC1 [Compound 307, (isobutyryloxy)methyl 4-(((trans)-4-(4-(trifluoromethoxy)phenyl)cyclohexyl)oxy)-1H-1,2,3-triazole-5-carboxylate]
The IC50 of the first is higher: over 10000 nM for the first, 1000 to 10000 nM for the second.

`O=C(O)c1[nH]nnc1O[C@H]1CC[C@@H](c2cc(Cl)cc(Cl)c2)CC1` [Compound 304, 4-(((1s,4s)-4-(3,5-dichlorophenyl)cyclohexyl)oxy)-1H-1,2,3-triazole-5-carboxylic acid] and `O=C(O)c1[nH]nnc1O[C@H]1CC[C@H](c2ccc(Cl)c(Cl)c2)CC1` [Compound 308-2, 4-(((trans)-4-(3,4-dichlorophenyl)cyclohexyl)oxy)-1H-1,2,3-triazole-5-carboxylic acid] cannot be ordered by IC50: under 100 nM for the first, under 100 nM for the second.

Compared with `O=C(OCOC(=O)c1[nH]nnc1O[C@H]1CC[C@H](c2ccc(OC(F)(F)F)cc2)CC1)c1ccccc1` [Compound 305, (benzoyloxy)methyl 4-(((trans)-4-(4-(trifluoromethoxy)phenyl)cyclohexyl)oxy)-1H-1,2,3-triazole-5-carboxylate], `O=C(O)c1[nH]nnc1SC1CCC(c2ccc(OC(F)(F)F)cc2)C1` (stereo not drawn) [Compound 314, 4-((3-(4-(trifluoromethoxy)phenyl)cyclopentyl)thio)-1H-1,2,3-triazole-5-carboxylic acid] is lower in IC50: over 10000 nM for the first, under 100 nM for the second. The second is the more potent here.

Compared with `O=C(O)c1[nH]nnc1Oc1ccc(C2CCC(N3CCCCC3)CC2)cc1` (stereo not drawn) [Compound 306, 4-(4-(4-(piperidin-1-yl)cyclohexyl)phenoxy)-1H-1,2,3-triazole-5-carboxylic acid 2,2,2-trifluoroacetate], `O=C(O)c1[nH]nnc1SCc1ccc(N2CCCCC2)c2ccccc12` [Compound 316, 4-(((4-(piperidin-1-yl)naphthalen-1-yl)methyl)thio)-1H-1,2,3-triazole-5-carboxylic acid 2,2,2-trifluoroacetate] is lower in IC50: 100 to 1000 nM for the first, under 100 nM for the second. The second is the more potent here.

`O=C(O)c1[nH]nnc1SC1CCC2(CCCC2)CC1` [Compound 311, 4-(spiro[4.5]decan-8-ylthio)-1H-1,2,3-triazole-5-carboxylic acid 2,2,2-trifluoroacetate] and `O=C(O)c1[nH]nnc1SC1CCC2(CCCCC2)CC1` [Compound 315, 4-(spiro[5.5]undecan-3-ylthio)-1H-1,2,3-triazole-5-carboxylic acid 2,2,2-trifluoroacetate] cannot be ordered by IC50: under 100 nM for the first, under 100 nM for the second.

First: O=C(O)c1[nH]nnc1CSc1ccc(-c2ccc(OC(F)(F)F)cc2)cc1 [Compound 312, 4-(((4′-(trifluoromethoxy)-[1,1′-biphenyl]-4-yl)thio)methyl)-1H-1,2,3-triazole-5-carboxylic acid 2,2,2-trifluoroacetate]
Second: CCC(=O)OCOC(=O)c1[nH]nnc1Sc1ccc(-c2ccc(N3CCCCC3)cc2)cc1 [Compound 313, (propionyloxy)methyl 4-((4′-(piperidin-1-yl)-[1,1′-biphenyl]-4-yl)thio)-1H-1,2,3-triazole-5-carboxylate 2,2,2-trifluoroacetate]
The IC50 of the first is lower: under 100 nM for the first, 1000 to 10000 nM for the second.

same assay, conditions: Table 3; read-out: Range (range of IC50 values calculated from the enzymatic assays)

Compared with `O=C(O)c1[nH]nnc1OC(Cc1ccc(Cl)cc1)Cc1ccc(Cl)cc1` [Compound 294, 4-((1,3-bis(4-chlorophenyl)propan-2-yl)oxy)-1H-1,2,3-triazole-5-carboxylic acid], `O=C(O)c1[nH]nnc1OC(CCc1ccccc1)c1ccccc1` (stereo not drawn) [Compound 296, 4-(1,3-diphenylpropoxy)-1H-1,2,3-triazole-5-carboxylic acid] is higher in IC50: under 100 nM for the first, over 10000 nM for the second. The first is the more potent here.
